Biological target: GLP-1R (Homo sapiens, UniProt P43220)
Experiment: GLP-1R agonist cAMP stimulation assay (HTRF cAMP)
Type: cell-based
Details: HEK293 cell line expressing GLP-1 target; HTRF cAMP agonist mode, 30 min at RT
Outline: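 GLP-1R-expressing cells were stimulated with 10-point, 3-fold compound dilutions for 30 min at RT; HTRF cAMP detection reagents were then added for 60 min and the 665/615 ratio read. Ratios were converted to cAMP via a standard curve and % activity scaled between DMSO and top-concentration GLP-1(7-37) reference wells.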

Sequence of GLP-1R (P43220 24-463): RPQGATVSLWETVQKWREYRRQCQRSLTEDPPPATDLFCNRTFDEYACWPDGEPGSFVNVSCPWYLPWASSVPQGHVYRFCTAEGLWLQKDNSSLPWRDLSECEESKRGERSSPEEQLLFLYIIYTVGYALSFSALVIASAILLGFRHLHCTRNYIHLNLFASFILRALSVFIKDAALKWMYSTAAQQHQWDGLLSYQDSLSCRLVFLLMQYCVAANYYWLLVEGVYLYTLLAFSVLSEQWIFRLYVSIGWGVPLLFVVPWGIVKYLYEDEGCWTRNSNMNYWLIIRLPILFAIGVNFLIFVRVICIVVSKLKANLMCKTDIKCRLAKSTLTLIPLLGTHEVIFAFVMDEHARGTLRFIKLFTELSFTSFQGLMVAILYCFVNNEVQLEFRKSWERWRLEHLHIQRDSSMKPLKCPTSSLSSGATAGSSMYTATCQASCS

| Structure (SMILES) | EC50 [nM] |
| --- | --- |
| COCCn1c(Cc2ccc(-c3cccc(OCc4ccc(C#N)cc4F)n3)cc2)nc2cc(C(=O)NCCc3ccc(N)cc3)ccc21 [Compound 9] | 2980 |
| Cc1n[nH]c2c(Cl)cc(C(=O)Nc3ccc4c(c3)nc(C3CC35CCN(c3cccc(OCc6ccc(Cl)cc6F)n3)CC5)n4CC3CCO3)cc12 (stereo not shown) [Compound 248] | 1.28 |
| Cc1n[nH]c2ccc(C(=O)Nc3ccc4nc(CN5CC=C(c6cccc(OCc7ccc(C#N)cc7F)n6)CC5)n(CC5CCO5)c4c3)cc12 (stereo not shown) [Compound 290] | 1.2 |
| Cc1n[nH]c2c(C(F)(F)F)cc(NC(=O)c3ccc4c(c3)nc(CN3CC=C(c5cccc6c5O[C@@](C)(c5ccc(Cl)cc5F)O6)CC3)n4CC3CCO3)cc12 (stereo partly shown) [Compound 388] | 0.82 |
| Cc1cc(C(=O)Nc2ccc3nc(CN4CC=C(c5cccc(OCc6ccc(Cl)cc6F)n5)CC4)n(C[C@@H]4CCO4)c3c2)cc2c1NC(=O)C21CC1 [Compound 282] | 4.32 |
| O=C(Nc1ccc2nc(CN3CC=C(c4cccc(OCc5ccc(Cl)cc5F)n4)CC3)n(C[C@@H]3CCO3)c2c1)c1cc(F)c2[nH]ncc2c1 [Compound 283] | 10.2 |
| Cc1[nH]c2ccc(C(=O)Nc3ccc4c(c3)nc(CN3CC=C(c5cccc(OCc6ccc(Cl)cn6)n5)CC3)n4C[C@@H]3CCO3)cc2c1C [Compound 392] | 10.1 |
| O=C(Nc1ccc2c(c1)C1(CC1)C(=O)N2)c1ccc2nc(CN3CC=C(c4cccc(OCc5ccc(Cl)cc5F)n4)CC3)n(C[C@@H]3CCO3)c2c1 [Compound 266] | 3.19 |
| Cc1cc2c(C#N)ccc(COc3cccc(C4=CCN(Cc5nc6cc(NC(=O)c7cc(F)c8[nH]nc(C)c8c7)ccc6n5C[C@@H]5CCO5)CC4)n3)c2o1 [Compound 360] | 0.19 |
| COCCn1c(CN2CCC(c3cccc(OCc4ccc(Cl)cc4F)n3)CC2)nc2cc(C(=O)NCc3ccc4[nH]ccc4c3)ccc21 [Compound 21] | 160 |
| O=C(NCC(=O)N1CC[C@H](O)C1)c1ccc2c(c1)nc(CN1CCC(c3cccc(OCc4ccc(Cl)cc4F)n3)CC1)n2C[C@@H]1CCO1 [Compound 70] | 1.9 |
| Cc1n[nH]c2c(Cl)cc(NC(=O)c3ccc4c(c3)nc(CN3CC=C(c5cccc6c5OC(C)(c5ccc(Cl)cc5F)O6)C[C@@H]3C)n4CC3CCO3)cc12 (stereo partly shown) [Compound 302] | 1.07 |
| Cc1n[nH]c2c(C(F)F)cc(NC(=O)c3ccc4c(c3)nc(CN3CC=C(c5cccc(OCc6ccc(Cl)c7cc(Cl)oc67)n5)CC3)n4C[C@@H]3CCO3)cc12 [Compound 352] | 1.03 |
| COCCn1c(CN2CCC(c3cccc(OCc4ccc(Cl)cc4F)n3)CC2)nc2cc(C(=O)N[C@@H]3CCc4nc(N)sc4C3)ccc21 [Compound 14] | 447 |
| COC(=O)C1CC(N(C)C)CN1C(=O)[C@H](C)NC(=O)c1ccc2c(c1)nc(CN1CCC(c3cccc(OCc4ccc(Cl)cc4F)n3)CC1)n2C[C@@H]1CCO1 (stereo partly shown) [Compound 74] | > 10000 |
| Cc1n[nH]c2c(F)cc(NC(=O)c3ccc4nc(CN5CC=C(c6cccc(OCc7ccc(Cl)cc7F)n6)CC5)n(CC5CCO5)c4c3)cc12 (stereo not shown) [Compound 262] | 3.12 |
| Cc1cc(NC(=O)c2ccc3c(c2)nc(CN2CC=C(c4cccc(OCc5ccc(C#N)cc5F)n4)CC2)n3C[C@@H]2CCO2)cc2c(C(F)F)n[nH]c12 [Compound 183] | 0.76 |
| Cc1cc(C(=O)Nc2ccc3c(c2)nc(CN2CC=C(c4cccc5c4OC(C)(c4ccc(Cl)cc4F)O5)CC2)n3C[C@@H]2CCO2)cc2[nH]c(=O)[nH]c12 (stereo partly shown) [Compound 309] | 0.87 |
| Cc1cc(C(=O)Nc2ccc3c(c2)nc(Cc2c(F)cc(-c4cccc5c4OC(C)(c4ccc(Cl)cc4F)O5)cc2F)n3C[C@@H]2CCO2)cc2c1NC(=O)C21CC1 (stereo partly shown) [Compound 319] | 0.43 |
| CC(C)c1n[nH]c2ccc(C(=O)Nc3ccc4c(c3)nc(C3CC35CCC(c3cccc(OCc6ccc(Cl)cc6F)n3)CC5)n4CC3CCO3)cc12 (stereo not shown) [Compound 251] | 2.22 |
| COCCn1c(CN2CCC(c3cccc(OCc4ccc(Cl)cc4F)n3)CC2)nc2cc(C(=O)N3Cc4[nH]nc(N)c4C3)ccc21 [Compound 26] | > 10000 |
| Cc1n[nH]c2cnc(NC(=O)c3ccc4c(c3)nc(CN3CCC(c5cccc(OCc6ccc(Cl)cc6F)n5)CC3)n4C[C@@H]3CCO3)nc12 [Compound 195] | 2.31 |
| Cc1cc(C(=O)Nc2ccc3c(c2)nc(CN2CCC(c4cccc5c4OC(C)(c4ccc(Cl)cc4F)O5)CC2)n3C[C@@H]2CCO2)cc2[nH]c(=O)[nH]c12 (stereo partly shown) [Compound 345] | 0.21 |
| Cc1n[nH]c2c(F)cc(C(=O)Nc3ccc4c(c3)nc(Cc3c(F)cc(-c5cccc6c5OC(C)(c5ccc(C#N)cc5F)O6)cc3F)n4CC3CCO3)cc12 (stereo not shown) [Compound 316] | 0.54 |
| O=C(N[C@@H](Cc1ccc(O)cc1)C(=O)O)c1ccc2c(c1)nc(CN1CCC(c3cccc(OCc4ccc(Cl)cc4F)n3)CC1)n2C[C@@H]1CCO1 [Compound 51] | 134 |
| Cc1nc2cccc(COc3cccc(C4=CCN(Cc5nc6cc(C(=O)Nc7ccc8[nH]nc(C)c8c7)ccc6n5C[C@@H]5CCO5)CC4)n3)c2s1 [Compound 369] | 2.91 |

| Structure (SMILES) | EC50 [nM] |
| --- | --- |
| Cc1n[nH]c2c(Cl)cc(NC(=O)c3ccc4c(c3)nc(CN3CC=C(c5cccc(OCc6ccc(Cl)cc6F)n5)CC3)n4C[C@@H]3CCO3)cc12 [Compound 160] | 0.98 |
| N#Cc1ccc(COc2cccc(C3=CCN(Cc4nc5cc(C(=O)Nc6ccc7[nH]nc(C(F)(F)F)c7c6)ccc5n4C[C@@H]4CCO4)CC3)n2)c(F)c1 [Compound 184] | 1.57 |
| O=C(Nc1cc(C(F)(F)F)c2[nH]nc(C3CC3)c2c1)c1ccc2c(c1)nc(CN1CCC(c3cccc(OCc4ccc(Cl)cc4F)n3)CC1)n2C[C@@H]1CCO1 [Compound 113] | 4.38 |
| O=C(Nc1ccc2[nH]nc(C3CC3)c2c1)c1ccc2c(c1)nc(CN1CC=C(c3cccc(OCc4ccc(Cl)cc4F)n3)CC1)n2C[C@@H]1CCO1 [Compound 162] | 1.23 |
| COC(=O)[C@@H]1C[C@H](O)CN1C(=O)CNC(=O)c1ccc2c(c1)nc(CN1CCC(c3cccc(OCc4ccc(Cl)cc4F)n3)CC1)n2C[C@@H]1CCO1 [Compound 63] | 0.49 |
| O=C(Nc1ccc2[nH]c(=O)cnc2c1)c1ccc2c(c1)nc(CN1CCC(c3cccc(OCc4ccc(Cl)cc4F)n3)CC1)n2C[C@@H]1CCO1 [Compound 84] | 17.9 |
| O=C(Nc1ccc2c(c1)C1(CC1)C(=O)N2)c1ccc2c(c1)nc(CN1CCC(c3cccc(OCc4ccc(Cl)cc4F)n3)CC1)n2C[C@@H]1CCO1 [Compound 86] | 0.75 |
| Cc1n[nH]c2c(C3CC3)cc(NC(=O)c3ccc4c(c3)nc(CN3CCC(c5cccc(OCc6ccc(Cl)cc6F)n5)CC3)n4C[C@@H]3CCO3)cc12 [Compound 118] | 8.31 |
| COCCn1c(C2CC23CCN(c2cccc(OCc4ccc(C#N)cc4F)n2)CC3)nc2cc(C(=O)Nc3ccc4[nH]nc(C)c4c3)ccc21 (stereo not shown) [Compound 7] | 0.35 |
| Cc1cc(NC(=O)c2ccc3c(c2)nc(CN2CC=C(c4cccc(OCc5ccc(Cl)cc5F)n4)CC2)n3C[C@@H]2CCO2)cc2c(C3CC3)n[nH]c12 [Compound 164] | 1.68 |
| COC(=O)[C@@H]1CC(F)(F)CN1C(=O)CNC(=O)c1ccc2c(c1)nc(CN1CC=C(c3cccc(OCc4ccc(Cl)cc4F)n3)CC1)n2C[C@@H]1CCO1 [Compound 69] | 70.5 |
| Cc1cc(NC(=O)c2ccc3c(c2)nc(CN2CCC(c4cccc(OCc5ccc(Cl)cc5F)n4)CC2)n3C[C@@H]2CCO2)cc2c(C3CC3)n[nH]c12 [Compound 114] | 1.04 |
| O=C(Nc1ccc2[nH]nc(F)c2c1)c1ccc2c(c1)nc(CN1CC=C(c3cccc(OCc4ccc(Cl)cc4F)n3)CC1)n2C[C@@H]1CCO1 [Compound 139] | 15.2 |
| Cc1n[nH]c2c(C(F)F)cc(NC(=O)c3ccc4c(c3)nc(CN3CCC(c5cccc(OCc6ccc(Cl)cc6F)n5)CC3)n4C[C@@H]3CCO3)cc12 [Compound 119] | 0.63 |
| Cc1n[nH]c2c(Cl)cc(C(=O)Nc3ccc4c(c3)nc(Cc3cc(F)c(-c5cccc6c5OC(C)(c5ccc(Cl)cc5F)O6)cc3F)n4CC3CCO3)cc12 (stereo not shown) [Compound 320] | 13.7 |
| O=C(Nc1cc(F)c2c(c1)C1(CC1)C(=O)N2)c1ccc2nc(CN3CC=C(c4cccc(OCc5ccc(Cl)cc5F)n4)CC3)n(C[C@@H]3CCO3)c2c1 [Compound 271] | 0.97 |
| O=C(Nc1ccc2[nH]nc(Cl)c2c1)c1ccc2nc(CN3CC=C(c4cccc(OCc5ccc(Cl)cc5F)n4)CC3)n(CC3CCO3)c2c1 (stereo not shown) [Compound 269] | 10.8 |
| Cc1n[nH]c2ccc(C(=O)Nc3ccc4c(c3)nc(C3CC35CCN(c3cccc(OCc6ccc(Cl)cc6F)n3)CC5)n4CC3CCO3)cc12 (stereo not shown) [Compound 246] | 0.91 |
| Cc1c[nH]c2c(C)cc(C(=O)Nc3ccc4c(c3)nc(CN3CC=C(c5cccc(OCc6ccc(Cl)cc6F)n5)CC3)n4C[C@@H]3CCO3)cc12 [Compound 390] | 5.21 |
| O=C(NCC(=O)N1C[C@@H](F)C[C@H]1C(=O)O)c1ccc2c(c1)nc(CN1CCC(c3cccc(OCc4ccc(Cl)cn4)n3)CC1)n2C[C@@H]1CCO1 [Compound 48] | 4.36 |
| O=C(Nc1ccc2nc(CN3CC=C(c4cccc(OCc5ccc(Cl)cc5F)n4)CC3)n(C[C@@H]3CCO3)c2c1)c1ccc2[nH]c(=O)[nH]c2c1 [Compound 285] | 0.42 |
| Cc1cc(C(=O)Nc2ccc3c(c2)nc(CN2CC=C(c4cccc(OCc5ccc(Cl)cc5F)n4)CC2)n3C[C@@H]2CCO2)c(F)c2c(C)n[nH]c12 [Compound 222] | 3.56 |
| O=C(Nc1cc(F)c2[nH]ncc2c1)c1ccc2c(c1)nc(CN1CCC(c3cccc(OCc4ccc(Cl)cc4F)n3)CC1)n2C[C@@H]1CCO1 [Compound 102] | 1.33 |
| CC(C)c1n[nH]c2ccc(C(=O)Nc3ccc4c(c3)nc(CN3CC=C(c5cccc(OCc6ccc(Cl)cc6F)n5)CC3)n4C[C@@H]3CCO3)cc12 [Compound 223] | 0.95 |
| O=C(Nc1cc(C(F)(F)F)c2c(c1)C1(CC1)C(=O)N2)c1ccc2nc(CN3CC=C(c4cccc(OCc5ccc(Cl)cc5F)n4)CC3)n(C[C@@H]3CCO3)c2c1 [Compound 273] | 2.78 |
| O=C(NCC(=O)N1CC[C@H]1C(=O)O)c1ccc2c(c1)nc(CN1CCC(c3cccc(OCc4ccc(Cl)cc4F)n3)CC1)n2C[C@@H]1CCO1 [Compound 61] | 6.75 |
